Where two headings read alike, the source gives them in different places.
What was measured:
[1] = target: GSK3α (Homo sapiens, UniProt P49840); assay: GSK3α kinase assay (Caliper LabChip, fluoresceinated peptide substrate); format: biochemical
Procedure: (§1) The kinase assay was performed in V-bottom 384-well plates. […] The reaction was incubated at room temperature for 20 hours and terminated by adding 45 μl of 35 mM EDTA to each sample. The reaction mixture was analyzed on the Caliper LabChip3000 (Caliper, Hopkinton, Mass.) by electrophoretic separation of the unphosphorylated substrate and phosphorylated product. […] Compounds were dissolved at 10 mM in dimethylsulfoxide (DMSO) and evaluated at eleven concentrations. IC50 values were derived by non-linear regression analysis.

[2] = system: pTau; assay: pTau assay (no method described); format: cell-based
[3] = target: GSK3β (Homo sapiens, UniProt P49841); assay: GSK3β kinase assay (Caliper LabChip, fluoresceinated peptide substrate); format: biochemical
Chain of GSK3β (P49841 whole entry, species assumed): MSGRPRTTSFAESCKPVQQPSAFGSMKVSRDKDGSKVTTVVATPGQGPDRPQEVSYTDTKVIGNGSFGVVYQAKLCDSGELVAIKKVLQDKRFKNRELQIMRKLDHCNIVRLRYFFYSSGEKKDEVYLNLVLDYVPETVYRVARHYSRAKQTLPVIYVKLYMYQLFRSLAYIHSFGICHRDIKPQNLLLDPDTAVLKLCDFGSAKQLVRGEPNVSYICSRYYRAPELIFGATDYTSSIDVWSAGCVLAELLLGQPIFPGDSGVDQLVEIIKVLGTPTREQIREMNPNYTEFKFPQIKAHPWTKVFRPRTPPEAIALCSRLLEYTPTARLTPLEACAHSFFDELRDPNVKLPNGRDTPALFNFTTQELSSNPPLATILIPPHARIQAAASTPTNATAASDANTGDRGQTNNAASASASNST
Procedure: as §1

[4] = second value of the cell, 250 pM enzyme, 20 uM ATP, 20 hours at room temperature, read-out: GSK3β/α (nM): GSK3α IC50
[5] = first value of the cell, 250 pM enzyme, 20 uM ATP, 20 hours at room temperature, read-out: GSK3β/α (nM): GSK3β IC50

Chain of GSK3α (P49840 whole entry, species assumed): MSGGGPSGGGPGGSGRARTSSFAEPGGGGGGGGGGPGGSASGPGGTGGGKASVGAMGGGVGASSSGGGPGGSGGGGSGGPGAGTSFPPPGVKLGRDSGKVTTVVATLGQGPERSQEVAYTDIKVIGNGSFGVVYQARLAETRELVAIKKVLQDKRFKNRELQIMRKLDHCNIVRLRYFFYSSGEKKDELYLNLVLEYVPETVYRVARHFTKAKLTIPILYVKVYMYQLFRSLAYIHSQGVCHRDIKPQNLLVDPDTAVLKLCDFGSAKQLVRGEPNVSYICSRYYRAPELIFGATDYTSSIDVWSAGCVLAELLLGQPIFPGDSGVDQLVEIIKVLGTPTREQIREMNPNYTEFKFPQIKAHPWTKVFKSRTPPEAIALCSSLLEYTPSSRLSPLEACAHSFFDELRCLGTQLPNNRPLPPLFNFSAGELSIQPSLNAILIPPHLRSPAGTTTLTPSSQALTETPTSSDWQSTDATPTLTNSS

Row | Compound | IC50 [1, 4] [nM] | IC50 [2] [nM] | IC50 [3] [nM] | IC50 [1] [nM] | IC50 [3, 5] [nM]
1 | CCC1(c2cc(Cl)ncc2NC(=O)c2ccnc(Nc3ccc(C)cn3)c2)OCCO1 [Example 109, N-(6-Chloro-4-(2-ethyl-1,3-dioxolan-2-yl)pyridin-3-yl)-2-((5-methylpyridin-2-yl)amino)isonicotinamide] | 1.2 | 45 | 1.8 |  | 
2 | O=C(Nc1cncnc1Br)c1ccnc(Nc2ccc(C(F)(F)F)cn2)c1 [Example 192, N-(4-Bromopyrimidin-5-yl)-2-((5-(trifluoromethyl)pyridin-2-yl)amino)isonicotinamide] |  | 520 |  | 9.3 | 23
3 | O=C(Nc1cncc(-c2ccccc2F)c1)c1ccnc(Nc2ccc(N3CCOCC3)cn2)c1 [Example 140, N-(5-(2-Fluorophenyl)pyridin-3-yl)-2-((5-morpholinopyridin-2-yl)amino)isonicotinamide] |  | 980 |  | 10 | 6.7
4 | O=C(Nc1cnc(Cl)cc1C1(O)CCOCC1)c1ccnc(Nc2ccc(C(F)(F)F)cn2)c1 [Example 74, N-(6-Chloro-4-(4-hydroxytetrahydro-2H-pyran-4-yl)pyridin-3-yl)-2-((5-(trifluoromethyl)pyridin-2-yl)amino)isonicotinamide] |  | 180 |  | 2.5 | 3.4
5 | COc1ccc(Nc2cc(C(=O)Nc3cncc(-c4ccccc4F)c3)ccn2)nc1 [Example 141, N-(5-(2-Fluorophenyl)pyridin-3-yl)-2-((5-methoxylpyridin-2-yl)amino)isonicotinamide] |  | 680 |  | 1.8 | 3.5
6 | O=C(Nc1cnc(Cl)cc1N1CCC(F)(F)CC1)c1ccnc(Nc2ccc(C(F)(F)F)cn2)c1 [Example 70, N-(6-Chloro-4-(4,4-difluoropiperidin-1-yl)pyridin-3-yl)-2-((5-(trifluoromethyl)pyridin-2-yl)amino)isonicotinamide] |  | 564 |  | 2.6 | 7.6
7 | CC1(c2cnncc2NC(=O)c2ccnc(Nc3ccc(C(F)(F)F)cn3)c2)OCCO1 [Example 200, N-(5-(2-Methyl-1,3-dioxolan-2-yl)pyridazin-4-yl)-2-((5-(trifluoromethyl)pyridin-2-yl)amino)isonicotinamide] |  | 3.2 |  | 0.39 | 0.62
8 | O=C(Nc1cnc(Cl)cc1C1(O)CCOCC1)c1ccnc(Nc2ccc(Cl)cn2)c1 [Example 111, N-(6-Chloro-4-(4-hydroxytetrahydro-2H-pyran-4-yl)pyridin-3-yl)-2-((5-chloropyridin-2-yl)amino)isonicotinamide] | 1.4 | 530 | 2.6 |  | 
9 | NS(=O)(=O)c1ccc(Nc2cc(C(=O)Nc3cncc(-c4ccccc4F)c3)ccn2)nc1 [Example 156, N-(5-(2-Fluorophenyl)pyridin-3-yl)-2-((5-sulfamoylpyridin-2-yl)amino)isonicotinamide] |  | 5600 |  | 1.6 | 3
10 | CC(C)(C)COc1cc(F)ncc1NC(=O)c1ccnc(Nc2ccc(C(F)(F)F)cn2)c1 [Example 75, N-(6-Fluoro-4-(neopentyloxy)pyridin-3-yl)-2-((5-(trifluoromethyl)pyridin-2-yl)amino)isonicotinamide] |  | 830 |  | 2.4 | 5.1
11 | O=C(Nc1cncc(N2CCOCC2)c1)c1ccnc(Nc2ccc(C(F)(F)F)cn2)c1 [Example 121, N-(5-Morpholinopyridin-3-yl)-2-((5-(trifluoromethyl)pyridin-2-yl)amino)isonicotinamide] |  | 1500 |  | 12 | 25
12 | O=C(Nc1cnncc1C1(CCCCl)OCCO1)c1ccnc(Nc2ccc(C(F)(F)F)cn2)c1 [Example 201, N-(5-(2-(3-Chloropropyl)-1,3-dioxolan-2-yl)pyridazin-4-yl)-2-((5-(trifluoromethyl)pyridin-2-yl)amino)isonicotinamide] |  | 28 |  | 0.4 | 0.19
13 | CC(C)CSc1ccncc1NC(=O)c1ccnc(Nc2ccc(C(F)(F)F)cn2)c1 [Example 175, N-(4-(Isobutylthio)pyridin-3-yl)-2-((5-(trifluoromethyl)pyridin-2-yl)amino)isonicotinamide] |  | 78 |  | 0.4 | 1.1
14 | O=C(Nc1cnc(F)cc1C1(C2CC2)OCCO1)c1ccnc(Nc2ccc(C(F)(F)F)cn2)c1 [Example 94, N-(4-(2-Cyclopropyl-1,3-dioxolan-2-yl)-6-fluoropyridin-3-yl)-2-((5-(trifluoromethyl)pyridin-2-yl)amino)isonicotinamide] |  | 1.2 |  | 0.03 | 0.06
15 | O=C(Nc1cnc(F)cc1N1CCOCC1)c1ccnc(Nc2ccc(C(F)(F)F)cn2)c1 [Example 73, N-(6-Fluoro-4-morpholinopyridin-3-yl)-2-((5-(trifluoromethyl)pyridin-2-yl)amino)isonicotinamide] |  | 43 |  | 0.6 | 1
16 | N#Cc1ccc(Nc2cc(C(=O)Nc3cncc(-c4ccccc4F)c3)ccn2)nc1 [Example 135, 2-((5-Cyanopyridin-2-yl)amino)-N-(5-(2-fluorophenyl)pyridin-3-yl)isonicotinamide] |  | 670 |  | 1.7 | 3
17 | Cc1ccncc1NC(=O)c1ccnc(Nc2ccc(C#N)cn2)c1 [Example 26, 2-((5-Cyanopyridin-2-yl)amino)-N-(4-methylpyridin-3-yl)isonicotinamide] | 8.2 | 670 | 14 |  | 
18 | O=C(Nc1cnccc1-c1ccccc1)c1ccnc(Nc2ccc3ccccc3n2)c1 [Example 116, N-(4-Phenylpyridin-3-yl)-2-(quinolin-2-ylamino)isonicotinamide] |  | 610 |  | 3.9 | 7.8
19 | O=C(Nc1cnccc1C1(O)CCCCC1)c1ccnc(Nc2ccc(C(F)(F)F)cn2)c1 [Example 38, N-(4-(1-Hydroxycyclohexyl)pyridin-3-yl)-2-((5-(trifluoromethyl)pyridin-2-yl)amino)isonicotinamide] |  | 8.8 |  | 0.71 | 1.1
20 | CCOc1ccncc1NC(=O)c1ccnc(Nc2nccc3ccccc23)c1 [Example 12, N-(4-Ethoxypyridin-3-yl)-2-(isoquinolin-1-ylamino)isonicotinamide] |  | 5400 |  | 35 | 5.9
21 | O=C(Nc1cnccc1C1=CCCCO1)c1ccnc(Nc2ccc(C(F)(F)F)cn2)c1 [Example 39, N-(4-(3,4-Dihydro-2H-pyran-6-yl)pyridin-3-yl)-2-((5-(trifluoromethyl)pyridin-2-yl)amino)isonicotinamide] |  | 140 |  | 0.93 | 1.2
22 | O=C(Nc1cnc(Cl)cc1[S+]([O-])C1CC1)c1ccnc(Nc2ccc(C(F)(F)F)cn2)c1 (stereo not drawn) [Example 180, N-(6-Chloro-4-(cyclopropylsulfinyl)pyridin-3-yl)-2-((5-(trifluoromethyl)pyridin-2-yl)amino)isonicotinamide] |  | 790 |  | 7.6 | 15
23 | O=C(Nc1cnccc1-c1ccccc1)c1ccnc(Nc2ccc(Cl)cn2)c1 [Example 59, 2-((5-Chloropyridin-2-yl)amino)-N-(4-phenylpyridin-3-yl)isonicotinamide] |  | 45 |  | 0.39 | 0.9
24 | O=C(Nc1cnccc1-c1ccccc1)c1cc(Nc2ccc(C(F)(F)F)cn2)ncc1F [Example 167, 5-Fluoro-N-(4-phenylpyridin-3-yl)-2-((5-(trifluoromethyl)pyridin-2-yl)amino)isonicotinamide] |  | 230 |  | 0.55 | 1.8
25 | CC[C@@]1(c2cc(Cl)ncc2NC(=O)c2ccnc(Nc3ccc(C(F)(F)F)cn3)c2)OC[C@@H](C)O1 [Example 90, N-(6-Chloro-4-((2R,4R)-2-ethyl-4-methyl-1,3-dioxolan-2-yl)pyridin-3-yl)-2-((5-(trifluoromethyl)pyridin-2-yl)amino)isonicotinamide] |  | 150 |  | 0.94 | 2
26 | O=C(Nc1cnccc1[S+]([O-])c1ccccc1)c1ccnc(Nc2ccc(C(F)(F)F)cn2)c1 (stereo not drawn) [Example 177, N-(4-(Phenylsulfinyl)pyridin-3-yl)-2-((5-(trifluoromethyl)pyridin-2-yl)amino)isonicotinamide] |  | 760 |  | 1.1 | 3.9
27 | O=C(Nc1cncc(-c2cccc(F)c2F)c1)c1ccnc(Nc2cccc(C(F)(F)F)n2)c1 [Example 147, N-(5-(2,3-Difluorophenyl)pyridin-3-yl)-2-((6-(trifluoromethyl)pyridin-2-yl)amino)isonicotinamide] |  | 380 |  | 44 | 2.3
28 | O=C(Nc1cnc(F)cc1-c1ccccc1)c1ccnc(Nc2ccc(C(F)(F)F)cn2)c1 [Example 67, N-(6-Fluoro-4-phenylpyridin-3-yl)-2-((5-(trifluoromethyl)pyridin-2-yl)amino)isonicotinamide] |  | 524 |  | 4 | 7
29 | COc1ccc(-c2ccncc2NC(=O)c2ccnc(Nc3ccc(C(F)(F)F)cn3)c2)c(F)c1 [Example 55, N-(4-(2-Fluoro-4-methoxy-phenyl)pyridin-3-yl)-2-((5-(trifluoromethyl)pyridin-2-yl)amino)isonicotinamide] |  | 86 |  | 0.89 | 3.2
